# Results reported in patent US10017507B2, “Diaza-benzofluoranthrene compounds” (HARBIN PHARMACEUTICAL GROUP CO., LTD. GENERAL …, priority 2015, dated 2018).
# Target: T1, PDE1A (Homo sapiens, UniProt P54750)
# T1 construct: purchased SignalChem
# Experiment: In vitro detection of phosphodiesterase (PDE): PDE1A enzyme activity by fluorescence polarization immunoassay
# Format: biochemical
# Conditions: human-derived enzyme, cAMP or cGMP substrate; read-out: IC50s for PDE1
# Procedure: Test 1: In Vitro Detection of Phosphodiesterase (PDE)
# the enzyme activity of PDE1A was determined by detecting the production of AMP/GMP by fluorescence polarization immunoassay, wherein AlexaFluor 633 labeled AMP/GMP was used to replace AMP/GMP to bind with the antibody.
# Reaction buffer: 10 mM Tris-HCl, pH 7.5, 5 mM magnesium chloride, 0.01% Brij 35, 1 mM DTT and 1% DMSO;
# Enzyme substrate: […] cAMP or cGMP (Ca^2+-calmodulin acts as a cofactor of PDE1A)
# Detection reagent: Transcreener® AMP2/GMP2 antibody; AMP2/GMP2 AlexaFluor 633 tracer.
# Experimental Procedure and Method:
# 1. Human-derived enzyme (commercially available from SignalChem) to be tested and substrate were diluted with freshly prepared reaction buffer;
# 2. The enzyme solution (with a concentration of 3 pM) was added to the holes of the microplates;
# 3. A series of solutions of the compounds in 100% DMSO (with the desired concentrations) were added to the holes containing the enzyme solution by Echo550, and then the microplates were incubated for 10 minutes at room temperature;
# 4. The substrate solution was added to the holes containing the enzyme and compounds to start the reaction;
# 5. The microplates were incubated for 1 hour under room temperature and vibration;
# 6. The detection mixture (tracer and antibody in stop buffer) was added to stop the enzyme reaction, and the microplates were incubated for 90 minutes under vibration;
# 7. The equipment EnVision (PerkinElmer), Cy5 FP Ex FP 620, Em S-pol 688/P-pol 688, FP mirror D658fp/D688 was used to detect the reaction mixture, and Ex/Em 620/688 was used to detect the fluorescence polarization.
# In the Excel table, the enzyme activity corresponding to the FP signal was found on the AMP/GMP standard curve by reference to the DMSO negative control, and then was converted to product concentration (nM). GraphPad Prism was used to analyze and calculate the IC50 values.
row,Compound,IC50 [µM]
1,"CC[C@@]12C=C(c3noc(-c4cccs4)n3)n3c4c(c5ccccc53)CCN(CCC1)[C@H]42 [Example 28, 3-((4^1S,13aS)-13a-ethyl-2,3,4^1,5,6,13a-hexahydro-1H-indolo[3,2,1-de]pyrido[3,2,1-ij][1,5]naphthyridin-12-yl)-5-(thiophen-2-yl)-1,2,4-oxadiazole]",> 100
2,"CC[C@@]12C=C(C(O)C(F)(F)F)n3c4c(c5ccccc53)CCN(CCC1)[C@H]42 (stereo partly drawn) [Example 1, 1-((4^1S,13aS)-13a-ethyl-2,3,4^1,5,6,13a-hexahydro-1H-indolyl[3,2,1-de]pyridyl[3,2,1-ij][1,5]naphthyridine-12-yl)-2,2,2-trifluoroethanol]",> 100
3,"CC[C@@]12C=C(c3nc(C)c(C)o3)n3c4c(c5c(S(=O)(=O)N(C)C)cccc53)CCN(CCC1)[C@H]42 [Example 74, (4^1S,13aS)-12-(4,5-dimethyloxazol-2-yl)-13a-ethyl-N,N-dimethyl-2,3,4^1,5,6,13a-hexahydro-1H-indolo[3,2,1-de]pyrido[3,2,1-ij][1,5]naphthyridin-7-sulfonamide]",1 to 20
4,"CC[C@@]12C=C(c3n[nH]c(=O)o3)n3c4c(c5ccccc53)CCN(CCC1)[C@H]42 [Example 16, 5-((4^1S,13aS)-13a-ethyl-2,3,4^1,5,6,13a-hexahydro-1H-indolo[3,2,1-de]pyrido[3,2,1-ij][1,5]naphthyridin-12-yl)-1,3,4-oxadiazol-2(3H)-one]",1 to 20
5,"CC[C@@]12C=C(c3noc(C)n3)n3c4c(c5ccccc53)CCN(CCC1)[C@H]42 [Example 20, 3-((4^1S,13aS)-13a-ethyl-2,3,4^1,5,6,13a-hexahydro-1H-indolo[3,2,1-de]pyrido[3,2,1-ij][1,5]naphthyridin-12-yl)-5-methyl-1,2,4-oxadiazole]",1 to 20
6,"CC[C@@]12C=C(c3nc(-c4ccccc4)no3)n3c4c(c5ccccc53)CCN(CCC1)[C@H]42 [Example 30, 5-((4^1S,13aS)-13a-ethyl-2,3,4^1,5,6,13a-hexahydro-1H-indolo[3,2,1-de]pyrido[3,2,1-ij][1,5]naphthyridin-12-yl)-3-phenyl-1,2,4-oxadiazole]",> 100
7,"CC[C@@]12C=C(c3ncc(C)o3)n3c4c(c5ccccc53)CCN(CCC1)[C@H]42 [Example 51, 2-((4^1S,13aS)-13a-ethyl-2,3,4^1,5,6,13a-hexahydro-1H-indolo[3,2,1-de]pyrido[3,2,1-ij][1,5]naphthyridin-12-yl)-5-methyloxazole]",1 to 20
8,"CC[C@@]12C=C(c3nc(C)c(C4CC4)o3)n3c4c(c5ccccc53)CCN(CCC1)[C@H]42 [Example 58, 5-cyclopropyl-2-((4^1S,13aS)-13a-ethyl-2,3,4^1,5,6,13a-hexahydro-1H-indolo[3,2,1-de]pyrido[3,2,1-ij][1,5]naphthyridin-12-yl)-4-methyloxazole]",≤ 1
9,"CC[C@@]12C=C(/C=C/C(=O)O)n3c4c(c5ccccc53)CCN(CCC1)[C@H]42 [Example 5, (E)-3-((4^1S,13aS)-13a-ethyl-2,3,4^1,5,6,13a-hexahydro-1H-indolo[3,2,1-de]pyrido[3,2,1-ij][1,5]naphthyridin-12-yl)acrylic acid]",> 100
10,"CC[C@@]12C=C(c3nc(C(C)C)no3)n3c4c(c5ccccc53)CCN(CCC1)[C@H]42 [Example 34, 5-((4S,13aS)-13a-ethyl-2,3,4^1,5,6,13a-hexahydro-1H-indolo[3,2,1-de]pyrido[3,2,1-ij][1,5]naphthyridin-12-yl)-3-isopropyl-1,2,4-oxadiazole]",1 to 20
11,"CC[C@@]12C=C(c3nc4c(o3)CCCC4)n3c4c(c5ccccc53)CCN(CCC1)[C@H]42 [Example 55, 2-((4^1S,13aS)-13a-ethyl-2,3,4^1,5,6,13a-hexahydro-1H-indolo[3,2,1-de]pyrido[3,2,1-ij][1,5]naphthyridin-12-yl)-4,5,6,7-tetrahydrobenzo[d]oxazole]",≤ 1
12,"CC[C@@]12C=C(c3nc(C)c(C)o3)n3c4c(c5ccc(S(=O)(=O)NC)cc53)CCN(CCC1)[C@H]42 [Example 68, (4^1S,13aS)-12-(4,5-dimethyloxazol-2-yl)-13a-ethyl-N-methyl-2,3,4^1,5,6,13a-hexahydro-1H-indolo[3,2,1-de]pyrido[3,2,1-ij][1,5]naphthyridin-9-sulfonamide]",≤ 1
13,"CC[C@@]12C=C(c3nc(-c4ccc(F)cc4)no3)n3c4c(c5ccccc53)CCN(CCC1)[C@H]42 [Example 32, 5-((4S,13aS)-13a-ethyl-2,3,4^1,5,6,13a-hexahydro-1H-indolo[3,2,1-de]pyrido[3,2,1-ij][1,5]naphthyridin-12-yl)-3-(4-fluorophenyl)-1,2,4-oxadiazole]",> 100
14,"CC[C@@]12C=C(c3cnco3)n3c4c(c5ccccc53)CCN(CCC1)[C@H]42 [Example 4, 5-((4^1S,13aS)-13a-ethyl-2,3,4^1,5,6,13a-hexahydro-1H-indolo[3,2,1-de]pyrido[3,2,1-ij][1,5]naphthyridin-12-yl)oxazole]",20 to 100
15,"CC[C@@]12C=C(c3nc(C)c(CO)o3)n3c4c(c5ccccc53)CCN(CCC1)[C@H]42 [Example 61, (2-((4^1S,13aS)-13a-ethyl-2,3,4^1,5,6,13a-hexahydro-1H-indolo[3,2,1-de]pyrido[3,2,1-ij][1,5]naphthyridin-12-yl)-4-methyloxazol-5-yl)methanol]",≤ 1
16,"CC[C@@]12C=C(c3nc(C4CC4)no3)n3c4c(c5ccccc53)CCN(CCC1)[C@H]42 [Example 35, 3-Cyclopropyl-5-((4^1S,13aS)-13a-ethyl-2,3,4^1,5,6,13a-hexahydro-1H-indolo[3,2,1-de]pyrido[3,2,1-ij][1,5]naphthyridin-12-yl)-1,2,4-oxadiazole]",1 to 20
17,"CCc1noc(C2=C[C@]3(CC)CCCN4CCc5c(n2c2ccccc52)[C@@H]43)n1 [Example 33, 3-ethyl-5-((4^1S,13aS)-13a-ethyl-2,3,4^1,5,6,13a-hexahydro-1H-indolo[3,2,1-de]pyrido[3,2,1-ij][1,5]naphthyridin-12-yl)-1,2,4-oxadiazole]",1 to 20
18,"CC[C@@]12C=C(c3noc(C4CCOCC4)n3)n3c4c(c5ccccc53)CCN(CCC1)[C@H]42 [Example 23, 3-((4^1S,13aS)-13a-ethyl-2,3,4^1,5,6,13a-hexahydro-1H-indolo[3,2,1-de]pyrido[3,2,1-ij][1,5]naphthyridin-12-yl)-5-(tetrahydro-2H-pyran-4-yl)-1,2,4-oxadiazole]",1 to 20
19,"(4^1S,13aS)-13a-ethyl-N-(3-methoxylpropyl)-12-(3-methyl-1,2,4-oxadiazol-5-yl)-2,3,4,5,6,13a-hexahydro-1H-indolo[3,2,1-de]pyrido[3,2,1-ij][1,5]naphthyridin-7-sulfonamide [Example 84]",> 100
20,"CCC/C(=N\OC)C1=C[C@]2(CC)CCCN3CCc4c(n1c1ccccc41)[C@@H]32 [Example 48, 1-((4^1S,13aS)-13a-ethyl-2,3,4^1,5,6,13a-hexahydro-1H-indolo[3,2,1-de]pyrido[3,2,1-ij][1,5]naphthyridin-12-yl)butan-1-one-O-methyl oxime]",1 to 20
21,"CC[C@@]12C=C(c3cn4ccccc4n3)n3c4c(c5ccccc53)CCN(CCC1)[C@H]42 [Example 42, (4^1S,13aS)-13a-ethyl-12-(imidazo[1,2-a]pyridin-2-yl)-2,3,4^1,5,6,13a-hexahydro-1H-indolo[3,2,1-de]pyrido[3,2,1-ij][1,5]naphthyridine]",1 to 20
22,"CC[C@@]12C=C(c3nc(C)no3)n3c4c(c5c(S(=O)(=O)N(C)C)cccc53)CCN(CCC1)[C@H]42 [Example 83, (4^1S,13aS)-13a-ethyl-N,N-dimethyl-12-(3-methyl-1,2,4-oxadiazol-5-yl)-2,3,4^1,5,6,13a-hexahydro-1H-indolo[3,2,1-de]pyrido[3,2,1-ij][1,5]naphthyridin-7-sulfonamide]",20 to 100
23,"(4^1S,13aS)-13a-ethyl-N-methyl-12-(3-methyl-1,2,4-oxadiazol-5-yl)-2,3,4^1,5,6,13a-hexahydro-1H-indolo[3,2,1-de]pyrido[3,2,1-ij][1,5]naphthyridin-8-sulfonamide [Example 79]",1 to 20
24,"CCc1nc(C2=C[C@]3(CC)CCCN4CCc5c(n2c2ccccc52)[C@@H]43)oc1C [Example 56, 4-ethyl-2-((4^1S,13aS)-13a-ethyl-2,3,4^1,5,6,13a-hexahydro-1H-indolo[3,2,1-de]pyrido[3,2,1-ij][1,5]naphthyridin-12-yl)-5-methyloxazole]",≤ 1
25,"CC[C@@]12C=C(c3nc(C)c(C#N)o3)n3c4c(c5ccccc53)CCN(CCC1)[C@H]42 [Example 63, 2-((4^1S,13aS)-13a-ethyl-2,3,4^1,5,6,13a-hexahydro-1H-indolo[3,2,1-de]pyrido[3,2,1-ij][1,5]naphthyridin-12-yl)-4-methyloxazole-5-carbonitrile]",≤ 1
26,"CC[C@@]12C=C(c3nc4c(o3)CCOC4)n3c4c(c5ccccc53)CCN(CCC1)[C@H]42 [Example 66, 2-((4^1S,13aS)-13a-ethyl-2,3,4^1,5,6,13a-hexahydro-1H-indolo[3,2,1-de]pyrido[3,2,1-ij][1,5]naphthyridin-12-yl)-6,7-dihydro-4H-pyrano[3,4-d]oxazole]",≤ 1
